Laboratory results taken from patent US20240050385A1, “METHODS OF TREATING LEPTOMENINGEAL METASTASIS” (MEMORIAL SLOAN-KETTERING CANCER CENTER, priority 2020, published 2024).
Entries after “also recorded” stand apart in the source; their conditions may differ. Counter-ions that a name gives are not always drawn.

How the values were obtained:
LLC-LeptoM model = assay: Immune cell composition in CSF of LLC-LeptoM model (flow cytometry); assay type: in vivo, mouse; conditions: day 10, in words
Description: (§1) FIG. 16A-16L. Iron chelator treatment reduces CSF iron. (A) Experimental scheme. Mice were inoculated with 2×10^3 cells intrathecally on day 0. Treatment with either vehicle, DFO, or D-pen was commenced on either day 1 or day 7 and continued every third day for a total of 7 doses. (B) Chelators delivered intrathecally. DFO, Deferoxamine. D-Pen, D-Penicillamine. (C-F) Intracellular iron (C and E) and viability (D and F) of PC9-LeptoM cells and MDA231-LeptoM cells after treatment with chelators in different concentrations (0 μM, 1 μM, 10 μM and 100 μM). n=3-4 per group in each of two independent experiments. * indicates p<0.05, ** indicates p<0.01, ***indicates p<0.001, **** indicates p<0.0001 (unpaired t test). Data represent mean±SEM. (G) Growth of PC9-LeptoM tumor after treatment indicated in (A). Left: in vivo BLI imaging in day 28 post-inoculation. n=8-10 per group in each of two independent experiments. Right: Representative BLI images. **** indicates p<0.0001. Data represent mean±SEM. (H) Kaplan-Meier survival curve from (C) and (E). p<0.0001. (I and J) Total iron concentration measured in CSF samples of mice with treatment of chelators in PC9-LeptoM Model (I) in MDA231-LeptoM model (J). NS=not significant, * indicates p<0.05, ** indicates p<0.01 (unpaired t test). Data represent mean±SEM. (K and L) Immune cell composition in CSF of LLC-LeptoM model with the treatment of vehicle, DFO, or D-pen at day 10. n=6 per group. NS=not significant, * indicates p<0.05, ** indicates p<0.01 (unpaired t test). Data represent mean±SEM.
Flow cytometry analysis and sorting. For cytometric bead assay, CSF from control mice or mice bearing LLC LeptoM cells was collected on day 14 as described above. Levels of cytokines were measured using LEGENDplex Mouse Inflammation Panel (13-plex; 740446, Biolegend) as recommended by manufacturer in technical duplicates. Data was processed using LEGENDPlex Software (Biolegend). For flow cytometric analysis of CSF and meningeal cells, mice were transcardially perfused though left ventricle with saline using standard procedures (16). Then, CSF was collected by cisternal tap as described above. Next, cranial vault was removed, brain was collected and basilar meninges were washed with PBS. Surface of the brain and ventricular spaces were washed with PBS. CSF, cavity and brain washouts were pooled and processed for staining. For analysis of peripheral leukocytes, blood was collected from deeply anesthesized mice using cardiac puncture. Spleen was collected from perfused animals, minced, and mechanically dissociated using GentleMACS (Miltenyi Biotec). […] Phagocytic activity and respiratory burst were analyzed using E. coli Phagocytosis Assay Kit (FITC conjugate, Cayman Chemicals, 601370) and CellRox Green Flow Cytometry (Thermo Fisher, C10492), as recommended. […]

LeptoM cells = assay: Cell Viability Assay / growth after chelator treatment; assay type: cell-based, human; conditions: PC9-LeptoM and MDA231-LeptoM; in words
Description: as §1, with “NS=not significant, * indicates p<0.05, ** indicates p<0.01 (unpaired t test). Data represent mean±SEM. (K and L) Immune cell composition in CSF of LLC-LeptoM model with the treatment of vehicle, DFO, or D-pen at day 10. n=6 per group. NS=not significant, * indicates p<0.05, ** indicates p<0.01 (unpaired t test). Data represent mean±SEM.” left out
Cell Viability Assay. […] The CellTiter-Glo Luminescent Cell Viability Assay (Promega G9241) was used to quantify viable cells in culture according to the manufacturer's protocols. […]

PC9-LeptoM cells = assay: In vivo leptomeningeal metastasis assay, PC9-LeptoM model, intracisternal chelator treatment; design: species or system mouse
[1] = IT-DFO dose escalation toxicity in healthy C57BL6/J mice; assay type: in vivo, mouse
Description: An IT-DFO dose escalation experiment was completed to determine the lethal dose to 10% of rodents (LD10) and any dose-dependent toxicities to the systemic circulation and organ function in a mouse model. In this study, healthy C57BL6/J mice were injected intracistemally with either PBS (control) or with a fixed dose of DFO (0.05 μM, 1 μM, 10 μM, 50 μM and 100 μM) in replicate at a schedule of twice weekly for a total of 6 weeks (42 days). Mice were monitored for weekly weights and survival trends. Remaining mice were sacrificed on day 46 and circulating blood collected via cardiac puncture. Blood was sent for complete blood count (CBC) with automated differential and complete metabolic panels (CMP).

Row | Structure (SMILES) | number (percentage) of CSF macrophages (LLC-LeptoM model) | numbers of neutrophils, T cells and monocytes in CSF (LLC-LeptoM model) | growth of the LeptoM cells (LeptoM cells) | [Fe] (PC9-LeptoM cells; total iron in CSF, early (day 0)) [µM] | Median Survival (PC9-LeptoM cells; treatment begun early (day 0), every 3 days) [days] | lethality with cumulative twice weekly dosing (LD for % rodents) ([1]; 10 μM group, one mouse died at day 24, total N=12) [%] | lethality with cumulative twice weekly dosing (LD for % rodents) ([1]; 50 μM group, one mouse died at day 46, total N=8) [%] | lethality following a single dose ([1]; any tested concentration (0.05, 1, 10, 50, 100 μM)) | tolerability of intracisternal administration ([1]; mouse, in vivo)
1 | CC(C)(S)[C@@H](N)C(=O)O [D-Pen, D-penicillamine] | slightly reduced | not affected | – | – | – | – | – | – | –
2 | CC(=O)N(O)CCCCCNC(=O)CCC(=O)N(O)CCCCCNC(=O)CCC(=O)N(O)CCCCCN [DFO, Deferoxamine mesylate] | slightly reduced; also recorded: only mildly reduced | not affected | substantially suppressed; also recorded: dramatically suppressed | 5.63 ± 0.70 | 52 ± 7 | 8.3 | 12.5 | no mice died | well tolerated
